Measurements reported in US7981912B2, “Indole acetic acids exhibiting CRTH2 receptor antagonism and uses thereof” (Wyeth LLC, priority 2004, dated 2011).

Legend:
human CRTH2 [1] = target: T1, human CRTH2 (Homo sapiens, UniProt Q9Y5Y4); assay: CRTH2 fluorescent imaging assay (intracellular calcium, antagonist mode); assay type: cell-based; parameters: expressed in transfected cells; host or cells: HT1080-hCRTH2; conditions: HT1080-hCRTH2 cells; block of calcium increase caused by 500 nM PGD2
T1 sequence (Q9Y5Y4 1-395): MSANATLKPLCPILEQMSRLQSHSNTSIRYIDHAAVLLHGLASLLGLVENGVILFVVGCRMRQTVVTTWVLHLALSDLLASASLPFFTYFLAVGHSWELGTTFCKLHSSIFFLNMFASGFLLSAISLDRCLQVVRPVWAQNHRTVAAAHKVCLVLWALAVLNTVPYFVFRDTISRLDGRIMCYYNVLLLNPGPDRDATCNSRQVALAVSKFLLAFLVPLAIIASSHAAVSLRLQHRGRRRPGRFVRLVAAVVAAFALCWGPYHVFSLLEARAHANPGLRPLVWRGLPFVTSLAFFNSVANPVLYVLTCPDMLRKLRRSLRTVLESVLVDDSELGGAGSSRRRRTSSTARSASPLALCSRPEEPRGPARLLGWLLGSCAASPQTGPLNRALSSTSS
Procedure: The ability of the disclosed compounds to act as agonists for the hCRTH2 receptor was determined by their ability to cause increases in intracellular calcium via binding to the CRTH2 receptor.
Assays were performed on HEK 293EBNA-hCRTH2 cells that had been grown in DMEM media containing 10% FBS, […] puromycin and 1% penicillin/streptomycin/glutamine (PSG) at 37° C. in 5% CO2 or on HT1080-hCRTH2 cells (a HT1080 cell line stably expressing human CRTH2) that had been grown in alphaMEM media containing 10% FBS, 500 μg/ml hygromycin, 200 nM methotrexate and 1% PSG at 37° C. in 5% CO2.
For the assay, HEK 293EBNA-hCRTH2 cells or HT1080-hCRTH2 cells were grown to approximately 90% confluency and then dislodged from the plate with Trypsin-EDTA, resuspended in DMEM media, seeded in 384 well plates at 2×10^4 cells per well and incubated overnight at 37° C. The cells were loaded with a calcium sensing dye by removing the growth media and replacing it with 30 μL of dye loading Ringer's buffer (136 mM […], 5.4 mM D-Glucose, 20 mM Hepes pH 7.4, 2.1 mM MgCl2, 0.8 mM CaCl2, 0.2% BSA with 1× Calcium3Dye (Molecular Devices) and 2.5 mM Probenecid (Sigma)) per well. The cells were incubated at 37° C. for 1 hour to allow the dye to enter the cells. Compounds were serially diluted in DMSO and then diluted to 4× their final concentration with Ringer's buffer. The compounds were added to a 384 well plate in quadruplicate. In addition to test compounds, several wells contained Ringer's buffer with DMSO. These wells serve as control wells. 10 μL was transferred from compound/control plate to the plate containing cells loaded with dye by a fluorescent imaging plate reader (Molecular Devices). The fluorescence was measured every 4 seconds for 4 minutes. These measurements indicated the level of intracellular calcium. Increases in fluorescence relative to wells containing buffer only indicated an agonist effect of the compound. Measurement at various compound concentrations allowed one to determine the EC50 for these compounds. Following the 4 minute incubation with compound, 20 μL of Ringer's buffer with either 10 nM or 500 nM PGD2 (approximate EC75 for PGD2 in HEK 293EBNA-hCRTH2 cells and HT1080-hCRTH2 cells, respectively) was added to the wells. Inhibition by the compounds of the calcium response due to antagonism of PGD2 action on CRTH2 is reflected by a decrease in fluorescent signal relative to wells containing no compound. The fluorescence was measured every 2 seconds for 10 seconds before addition of PGD2 and every 2 seconds for 110 seconds following addition. Measurement at various compound concentrations allowed one to determine the IC50 for these compounds. EC50 and IC50 values were determined from the experimental results by nonlinear regression using the Prism 4.0 software.

human CRTH2 [2] = target: T1, human CRTH2; assay: CRTH-2 binding assay (scintillation proximity assay, inhibition of 3H-PGD2 binding); parameters: expressed in transfected cells; host or cells: HEK 293EBNA-hCRTH2 (membrane preparation); conditions: inhibition of 3H-PGD2 (3.6 nM) binding to HEK 293EBNA-hCRTH2 membranes; Ki calculated from IC50
How it was run: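 Membranes from HEK 293EBNA cells stably expressing human CRTH2 (~20 μg protein/100 μL) with SPA beads and 3.6 nM 3H-PGD2 in 10 mM Hepes pH 7.4, 1 mM EDTA, 10 mM MnCl2, glycerol, 2 h at room temperature, seven compound concentrations in triplicate. Nonspecific binding defined with indomethacin; IC50 converted to Ki using Kd and radioligand concentration.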

SMILES	IC50 (human CRTH2 [1])	Ki (human CRTH2 [2])
Cc1c(-c2nn(Cc3ccc(F)cc3)c(=O)c3ccccc23)c2cc(Cl)ccc2n1CC(=O)O [Example 24, {5-Chloro-3-[3-(4-fluoro-benzyl)-4-oxo-3,4-dihydro-phthalazin-1-yl]-2-methyl-indol-1-yl}-acetic acid]	60 nM	< 100 nM
Cc1c(-c2nn(Cc3ccccc3)c(=O)c3ccccc23)c2cc(Cl)ccc2n1CC(=O)O [Example 16, [3-(3-Benzyl-4-oxo-3,4-dihydro-phthalazin-1-yl)-5-chloro-2-methyl-indol-1-yl]-acetic acid]	19 nM	< 100 nM
Cc1noc(C)c1CN1C(c2c(C)n(CC(=O)O)c3ccccc23)c2ccc(F)cc2S1(=O)=O (centres unmarked) [Example 62, {3-[2-(3,5-Dimethyl-isoxazol-4-ylmethyl)-6-fluoro-1,1-dioxo-2,3-dihydro-1H-1λ^6-benzo[d]isothiazol-3-yl]-2-methyl-indol-1-yl}-acetic acid]	22 nM	< 100 nM
Cc1onc(-c2ccccc2)c1CN1C(c2c(C)n(CC(=O)O)c3ccc(Cl)cc23)c2ccccc2S1(=O)=O (centres unmarked) [Example 61, {5-Chloro-2-methyl-3-[2-(5-methyl-3-phenyl-isoxazol-4-ylmethyl)-1,1-dioxo-2,3-dihydro-1H-1λ^6-benzo[d]isothiazol-3-yl]-indol-1-yl}-acetic acid]	170 nM	< 100 nM
